Marks after values point to notes of the source that are not given here.
Tests used:
[1] = system: whole blood coagulation; test: ACT in rabbits, intravenous maintenance administration; format: in vivo, rabbit
Protocol: 2. Grouping and administration: 10 rabbits were randomly divided into 3 groups, […]. 1) Sham operation group (NS): Intravenous injection of the same volume of physiological saline, with the same operation method as above; 2) polypeptide 2 administration group: 8.0 mg/kg+20.0 mg/kg/h; 3) positive control enoxaparin group: 50 U/kg+150 U/kg/h. According to the body weight in kilograms of the rabbits, the first dose of the drug to be tested was dissolved in 2 mL of physiological saline for single bolus injection. The maintaining dose was dissolved in 9 ml of physiological saline, and placed in a double-channel micro-injection pump, which was dripped off within 90 minutes at a dripping speed of […]. The sham operation group was administered with the same volume of physiological saline. […]

[2] = system: FeCl3-induced femoral artery thrombosis; test: FeCl3-induced femoral artery thrombosis in rabbits, intravenous maintenance administration; format: in vivo, rabbit
Protocol: (§1) 2. Grouping and administration: 10 rabbits were randomly divided into 3 groups, 2 to 3 rabbits per group. 1) Sham operation group (NS): Intravenous injection of the same volume of physiological saline, with the same operation method as above; 2) polypeptide 2 administration group: 8.0 mg/kg+20.0 mg/kg/h; 3) positive control enoxaparin group: 50 U/kg+150 U/kg/h. According to the body weight in kilograms of the rabbits, the first dose of the drug to be tested was dissolved in 2 mL of physiological saline for single bolus injection. The maintaining dose was dissolved in 9 ml of physiological saline, and placed in a double-channel micro-injection pump, which was dripped off within 90 minutes at a dripping speed of […]. The sham operation group was administered with the same volume of physiological saline.
3.1 Surgery preparation of rabbits: Rabbits were sent to the laboratory for accommodation for one day, and then screened at first. Blood samples were taken from arteries within ears, which were subjected to blood routine analysis and APTT assay, and the rabbits with normal blood hemateikon and APTT between 16s to 28s were selected for experiments. The rabbits to be tested were fasted with free access to water for the night before the experiment. The rabbits were anesthetized with intravenous injection of 3% sodium pentobarbital solution at 1 ml/kg, fixed in the supine position, and then, the common carotid artery at one side, external jugular vein, femoral artery at one side, femoral vein, and forelimb vein at one side were isolated. The forelimb vein was subjected to intubation for administration; the left femoral vein was subjected to intubation for blood collection to determine the platelet aggregation rate; the femoral artery was used for the establishment of an arterial thrombosis model; the common carotid artery and external jugular vein were used for the establishment of an arterial and venous bypass thrombosis model.
3.2 Arterial thrombosis (AT) model: A small piece of a filter paper (1 cm×1.5 cm) absorbed with 50% FeCl3 solution was applied onto the right femoral artery while administration, below which a small piece of a plastic film (2.5 cm×2.0 cm) was placed to protect surrounding tissues. After 10 minutes, the filter paper was removed, and then, the blood vessels and local tissues were rinsed with warm physiological saline, and the covered blood vessels were cut off. The thrombus which attached to the blood vessel walls was peeled off to be weighed on a tin foil for its wet weight, and then kept overnight at room temperature and weighed for its dry weight.
3.3 Experimental Procedures: The femoral arteries in the […] and both sides in the rabbits were isolated and stabilized for 10 minutes before the administration was started. An AT model was established by covering the femoral artery with a 50% FeCl3 filter paper while administration, and the filter paper was removed after 15 minutes. Observation was continued for 120 min after administration until the experiment was completed.
4.4 Thrombus weight: After the experiment was completed, the segment of the blood vessels in which there had been thrombus formation was cut off, weighed for the wet weight, and then kept overnight at room temperature and weighed for the dry weight. The thrombosis inhibitory rate was calculated with a calculation equation as follows: […]

[3] = system: blood coagulation function; test: PT in rabbits, intravenous maintenance administration; format: in vivo, rabbit
Protocol: as §1
4.2 Determination of blood coagulation function: Blood samples were taken and the blood function (PT, APTT) was determined at 0 min before administration, at points of 30 min, 60 min, 90 min after administration, and at points of 60 min, 120 min and 180 min after termination of administration, using a platelet-aggregation coagulation factor analyzer. Blood samples were centrifuged at 3510 rpm for 8 min to obtain platelet poor plasma (PPP). Reagent reconstruction and preservation were performed according to the operation requirements of the kit. Immediately after each blood sample was placed into a test cup and then added with PT, TT and APTT reagents, the test was started. After the test was completed, results were recorded.

[4] = system: thrombin-induced pulmonary embolism; test: Thrombin-induced pulmonary embolism in mice; format: in vivo, mouse; conditions: thrombin 1500 u/kg, tail iv 250 IU/kg
[5] = iv 8.0 + 20.0 (mg/kg+mg/kg/h), Administration 30 min
[6] = iv 8.0 + 20.0 (mg/kg+mg/kg/h), Administration 60 min
[7] = iv 8.0 + 20.0 (mg/kg+mg/kg/h), Administration 90 min
[8] = iv 8.0 + 20.0 (mg/kg+mg/kg/h), Before administration
[9] = iv 8.0 + 20.0 (mg/kg+mg/kg/h), Termination 120 min
[10] = iv 8.0 + 20.0 (mg/kg+mg/kg/h), Termination 180 min
[11] = iv 8.0 + 20.0 (mg/kg + mg/kg/h)
[12] = iv 50 U + 150 U, Administration 30 min
[13] = iv 50 U + 150 U, Administration 60 min
[14] = iv 50 U + 150 U, Administration 90 min
[15] = iv 50 U + 150 U, Before administration
[16] = iv 50 U + 150 U, Termination 60 min
[17] = iv 50 U + 150 U, Termination 120 min
[18] = iv 50 U + 150 U, Termination 180 min

“D-Phe Pro Arg Pro Gly Gly Gly Gly Asn Gly Asp Phe Glu Glu Ile Pro Glu Glu Tyr Leu Glu Ala Ala Ala Lys Cys Har Gly Asp Trp Pro Cys [Polypeptide 2]” was tested, and the ACT [1, 5] was 330.0 ± 63.6 S, the ACT [1, 6] was 277.5 ± 31.8 S and the ACT [1, 7] was 300.0 ± 63.6 S. It also gave an ACT [1, 8] of 217.5 ± 95.5 S, an ACT [1, 9] of 172.5 ± 31.8 S and an ACT [1, 10] of 112.5 ± 74.2 S. For the same substance, the “Thrombus inhibitory rate Dry weight” value [2, 11] was 84.9 ± 2.3%, the “Thrombus inhibitory rate Wet weight” value [2, 11] was 75.6 ± 3.8% and the “Thrombus weight Dry weight” value [2, 11] was 3.2 ± 2.0 mg. The “Thrombus weight Wet weight” value [2, 11] was 14.2 ± 10.2 mg, the PT [3, 5] was 12.7 ± 0.5 S and the PT [3, 6] was 9.4 ± 2.0 S. The PT [3, 7] was 11.6 ± 1.3 S, the PT [3, 8] was 7.7 ± 1.8 S and the PT ([3]; iv 8.0 + 20.0 (mg/kg+mg/kg/h), Termination 60 min) was 7.7 ± 0.0 S. It also gave a PT [3, 9] of 7.1 ± 1.8 S and a PT [3, 10] of 7.4 ± 1.3 S.
Enoxaparin showed an ACT [1, 12] of 225.0 S, an ACT [1, 13] of 375.0 S and an ACT [1, 14] of 270.0 S. The ACT [1, 15] was 180.0 S, the ACT [1, 16] was 210 S and the ACT [1, 17] was 195.0 S. For the same substance, the ACT [1, 18] was 225.0 S, the “Thrombus inhibitory rate Dry weight” value ([2]; iv 50 U + 150 U (U/kg+U/kg/h)) was 10 ± 4.2% and the “Thrombus inhibitory rate Wet weight” value ([2]; iv 50 U + 150 U (U/kg+U/kg/h)) was 40 ± 5.7%. The “Thrombus weight Dry weight” value ([2]; iv 50 U + 150 U (U/kg+U/kg/h)) was 2.3 ± 2.1 mg, the “Thrombus weight Wet weight” value ([2]; iv 50 U + 150 U (U/kg+U/kg/h)) was 3.9 ± 4.0 mg and the PT [3, 12] was 10.4 S. For the same substance, the PT [3, 13] was 10.4 S, the PT [3, 14] was 11.3 S and the PT [3, 15] was 9.4 S. The PT [3, 16] was 8.2 S, the PT [3, 17] was 8.1 S and the PT [3, 18] was 7.6 S. The Number of platelets [4] was 459.83 ± 49.66 ×10^9 and the Mortality rate ([4]; within 15 min) was 10**^## %.

— patent US11643439B2, “Multi-target compound with anticoagulation and antiplatelet activity, preparation method therefor, and use thereof” (SHAANXI MICOT TECHNOLOGY LIMITED COMPANY, priority 2015, dated 2023)
